According to patent publication US11673855B2, “Voltage gated sodium channel imaging agents” (The General Hospital Corporation, priority 2017, dated 2023):
Entries after “also recorded” stand apart in the source; their conditions may differ.

What was measured:
SCN5A [1] = molecular target: T1, SCN5A (Homo sapiens, UniProt Q14524); assay: Ex vivo autoradiography of human heart tissue, self-displacement dose-response; format: binding; details: self-inhibition, modified Cheng-Prusoff equation
T1 construct: Non-failing human donor heart samples were compared to explanted tissue from patients who had suffered from heart failure; from tissue; host or cells: human left ventricular myocardium (non-failing donor hearts and explanted DCM-failing hearts)
Description: Non-failing human donor heart samples were compared to explanted tissue from patients who had suffered from heart failure due to idiopathic dilated cardiomyopathy (DCM) and required cardiac transplantation, as shown in FIGS. 4A-4B (see e.g., Japp et al, J. Am. Coll. Cardiol. 2016, 67:2996-3010).
To exclude that the reduced signal was the result of a decrease in affinity in diseased vs. healthy tissue and confirm a deficit in channel density, dose-response experiments were performing using N-(2,6-dimethylphenyl)-2-(ethyl(2-fluoroethyl)amino)acetamide as the competition ligand. Using the modified Cheng-Prusoff equation for self-inhibition, these measurements allowed for the determination of Kd-values for the groups NF1 and F1, as shown in FIG. 4B. […] A ˜30% reduction in Bmax was observed.

SCN5A [2] = molecular target: T2, SCN5A (Rattus norvegicus, UniProt P15389); assay: Ex vivo F-18 autoradiography of rat myocardium; format: binding
T2 construct: Heart sections ([…] thickness) were prepared using a −20° C. cryostat and thaw-mounted onto gelatin-coated slides; from tissue; host or cells: rat heart (myocardium) cryosections
Experimental: Heart sections ([…] thickness) were prepared using a −20° C. cryostat and thaw-mounted onto gelatin-coated slides. The slides were stored at −20° C. until the day of the experiment. […] Individual images of sections were cropped using ImageJ with no additional adjustment to color levels/thresholds. The experimental setup was designed such that both baseline and competition experiments contained the same amount of radioactivity and were imaged on the same screen. […] For variation of washing times, the incubation was held constant at 15 min.

[3] = tested on: myocardium of non-human primates; assay: PET/MR imaging of non-human primates; format: in vivo
Experimental: Two female baboons (Papio anubis, weight=15.2±1.6 kg) were deprived of food for 12 h prior to the study. Anesthesia was induced with intramuscular ketamine (10 mg/kg) and xylazine (0.5 mg/kg). After endotracheal intubation, the baboons were catheterized antecubitally for injection of the radiolabeled compound. Anesthesia was maintained using isoflurane (1-1.5%, 100% oxygen, 1 L/min) during the scan, and ketamine/xylazine effects were reversed with yobine (0.11 mg/kg, i.m.) before image acquisition. Vital signs, including heart rate, respiration rate, blood pressure, O2 saturation, and end tidal CO2, were monitored continuously and recorded every 15 min. Simultaneous PET/MR data were acquired using a Siemens Biograph mMR system (Siemens Healthcare, Erlangen, Germany). Each animal underwent a baseline and a blocking scan on two separate days. MR body imaging was performed with real-time respiratory bellow gating and using the body matrix coil and the built-in spine coil as the receiving coil elements. High-resolution anatomical T1-weighted, dual echo, gradient echo sequence was acquired with the following parameters: TR=194 ms, TE1/TE2=1.23/2.46 ms, matrix size 256×256, FOV=35 cm, phase FOV 65.6% (in-plane resolution=1.4 mm), 4 mm slice thickness, and 80 slices. For the purpose of MR-based attenuation correction of the PET data, a T1-weighted, 2-point Dixon 3D volumetric interpolated breath-hold examination (VIBE) scan was obtained. PET data were obtained using a single-bed position with an axial field of view of 25.8 cm, and a transverse field of view of 59.4 cm. PET data were acquired dynamically for 60 min (bolus injection of N-(2,6-dimethylphenyl)-2-(ethyl(2-(fluoro-^18F)ethyl)amino)acetamide) or 90 min (bolus/infusion of N-(2,6-dimethylphenyl)-2-(ethyl(2-(fluoro-^18F)ethyl)amino)acetamide) after intravenous administration of N-(2,6-dimethylphenyl)-2-(ethyl(2-(fluoro-^18F)ethyl)amino)acetamide (5.0±0.2 mCi bolus or 4 mCi bolus+4 mCi infusion). […] Standard uptake unit (SUV) was calculated as the mean radioactivity per injected dose per weight.

rat myocardium = assay: Rodent PET-CT imaging of the myocardium, single bolus and bolus+infusion, with lidocaine block; format: in vivo
Experimental: Male Sprague-Dawley rats (400-500 g) were anesthetized with inhalational isoflurane (Forane) (3% in a carrier of 1.5-2 L/min medical oxygen for induction and 2% isoflurane for maintenance of anesthesia during the scan). Lateral tail vein catheters were placed for intravenous (i.v.) injection of the compounds. Two rats were arranged head-to-head in a Triumph Trimodality PET/CT/SPECT scanner (Gamma Medica, Northridge, Calif.) or a MicroPET P4 scanner. […] Dynamic PET acquisition was performed over 45 min and was followed by computed tomography (CT) for anatomic coregistration and attenuation correction. […] Reconstructed images were exported from the scanner in DICOM format along with an anatomic CT for rodent studies. These files were imported to AMIDE and Gaussian filtered (kernel size=15, fwhm=1.5 mm). Regions of interest (ROIs) were drawn manually at the lung and myocardium guided by high-resolution CT structural images and summed PET data. Time-activity-curves (TACs) were exported in terms of decay corrected activity per unit volume at specified time points with gradually increasing intervals.

T2 sequence (P15389 whole entry): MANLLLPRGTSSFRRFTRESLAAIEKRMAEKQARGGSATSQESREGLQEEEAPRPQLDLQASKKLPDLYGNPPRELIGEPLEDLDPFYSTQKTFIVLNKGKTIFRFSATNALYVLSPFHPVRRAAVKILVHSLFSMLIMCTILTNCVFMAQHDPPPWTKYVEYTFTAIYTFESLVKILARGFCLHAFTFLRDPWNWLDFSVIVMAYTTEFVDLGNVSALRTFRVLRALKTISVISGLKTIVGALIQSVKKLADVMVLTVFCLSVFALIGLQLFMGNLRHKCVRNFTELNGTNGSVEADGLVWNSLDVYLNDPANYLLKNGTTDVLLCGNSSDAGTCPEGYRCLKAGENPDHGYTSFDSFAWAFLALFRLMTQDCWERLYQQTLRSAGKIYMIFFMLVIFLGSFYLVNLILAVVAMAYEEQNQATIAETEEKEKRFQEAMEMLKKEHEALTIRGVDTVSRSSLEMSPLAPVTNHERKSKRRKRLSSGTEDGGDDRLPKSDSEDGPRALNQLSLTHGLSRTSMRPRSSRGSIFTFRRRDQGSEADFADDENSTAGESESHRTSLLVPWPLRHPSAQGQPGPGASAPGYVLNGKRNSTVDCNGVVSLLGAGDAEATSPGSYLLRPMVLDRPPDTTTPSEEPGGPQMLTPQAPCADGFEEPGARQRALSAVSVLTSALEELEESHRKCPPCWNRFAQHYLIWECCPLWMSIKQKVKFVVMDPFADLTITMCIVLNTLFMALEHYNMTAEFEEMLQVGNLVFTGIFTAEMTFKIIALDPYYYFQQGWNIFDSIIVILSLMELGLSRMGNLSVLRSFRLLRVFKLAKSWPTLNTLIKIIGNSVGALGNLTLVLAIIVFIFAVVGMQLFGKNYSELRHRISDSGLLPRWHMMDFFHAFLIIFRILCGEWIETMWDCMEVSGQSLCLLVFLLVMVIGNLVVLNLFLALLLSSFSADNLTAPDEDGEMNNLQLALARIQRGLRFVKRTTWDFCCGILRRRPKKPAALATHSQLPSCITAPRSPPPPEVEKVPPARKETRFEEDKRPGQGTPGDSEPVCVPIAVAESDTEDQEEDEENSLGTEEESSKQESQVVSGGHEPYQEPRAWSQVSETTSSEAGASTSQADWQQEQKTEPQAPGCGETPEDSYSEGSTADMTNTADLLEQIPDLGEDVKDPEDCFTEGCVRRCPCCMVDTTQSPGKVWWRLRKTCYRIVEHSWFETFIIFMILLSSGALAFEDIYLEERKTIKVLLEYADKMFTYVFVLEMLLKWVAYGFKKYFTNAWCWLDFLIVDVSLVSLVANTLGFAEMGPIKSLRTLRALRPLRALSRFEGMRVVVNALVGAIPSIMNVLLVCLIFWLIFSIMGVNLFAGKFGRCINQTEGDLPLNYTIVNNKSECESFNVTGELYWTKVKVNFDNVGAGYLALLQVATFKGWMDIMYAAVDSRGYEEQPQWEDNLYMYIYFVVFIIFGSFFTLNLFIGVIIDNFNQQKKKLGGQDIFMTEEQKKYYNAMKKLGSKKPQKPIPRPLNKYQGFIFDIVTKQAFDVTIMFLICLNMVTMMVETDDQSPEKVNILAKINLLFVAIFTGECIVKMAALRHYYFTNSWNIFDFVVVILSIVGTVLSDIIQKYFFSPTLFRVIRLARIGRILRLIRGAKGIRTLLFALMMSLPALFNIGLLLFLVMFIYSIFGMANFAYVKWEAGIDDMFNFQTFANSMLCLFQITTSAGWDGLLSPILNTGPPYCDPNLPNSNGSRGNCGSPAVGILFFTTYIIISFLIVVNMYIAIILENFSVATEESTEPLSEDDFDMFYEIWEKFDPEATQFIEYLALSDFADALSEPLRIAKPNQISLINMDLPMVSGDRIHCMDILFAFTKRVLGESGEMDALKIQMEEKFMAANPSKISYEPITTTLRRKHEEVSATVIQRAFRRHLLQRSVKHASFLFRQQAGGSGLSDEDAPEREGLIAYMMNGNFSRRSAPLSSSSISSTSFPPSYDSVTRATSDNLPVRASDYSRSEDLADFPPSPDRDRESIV
T1 sequence (Q14524 whole entry): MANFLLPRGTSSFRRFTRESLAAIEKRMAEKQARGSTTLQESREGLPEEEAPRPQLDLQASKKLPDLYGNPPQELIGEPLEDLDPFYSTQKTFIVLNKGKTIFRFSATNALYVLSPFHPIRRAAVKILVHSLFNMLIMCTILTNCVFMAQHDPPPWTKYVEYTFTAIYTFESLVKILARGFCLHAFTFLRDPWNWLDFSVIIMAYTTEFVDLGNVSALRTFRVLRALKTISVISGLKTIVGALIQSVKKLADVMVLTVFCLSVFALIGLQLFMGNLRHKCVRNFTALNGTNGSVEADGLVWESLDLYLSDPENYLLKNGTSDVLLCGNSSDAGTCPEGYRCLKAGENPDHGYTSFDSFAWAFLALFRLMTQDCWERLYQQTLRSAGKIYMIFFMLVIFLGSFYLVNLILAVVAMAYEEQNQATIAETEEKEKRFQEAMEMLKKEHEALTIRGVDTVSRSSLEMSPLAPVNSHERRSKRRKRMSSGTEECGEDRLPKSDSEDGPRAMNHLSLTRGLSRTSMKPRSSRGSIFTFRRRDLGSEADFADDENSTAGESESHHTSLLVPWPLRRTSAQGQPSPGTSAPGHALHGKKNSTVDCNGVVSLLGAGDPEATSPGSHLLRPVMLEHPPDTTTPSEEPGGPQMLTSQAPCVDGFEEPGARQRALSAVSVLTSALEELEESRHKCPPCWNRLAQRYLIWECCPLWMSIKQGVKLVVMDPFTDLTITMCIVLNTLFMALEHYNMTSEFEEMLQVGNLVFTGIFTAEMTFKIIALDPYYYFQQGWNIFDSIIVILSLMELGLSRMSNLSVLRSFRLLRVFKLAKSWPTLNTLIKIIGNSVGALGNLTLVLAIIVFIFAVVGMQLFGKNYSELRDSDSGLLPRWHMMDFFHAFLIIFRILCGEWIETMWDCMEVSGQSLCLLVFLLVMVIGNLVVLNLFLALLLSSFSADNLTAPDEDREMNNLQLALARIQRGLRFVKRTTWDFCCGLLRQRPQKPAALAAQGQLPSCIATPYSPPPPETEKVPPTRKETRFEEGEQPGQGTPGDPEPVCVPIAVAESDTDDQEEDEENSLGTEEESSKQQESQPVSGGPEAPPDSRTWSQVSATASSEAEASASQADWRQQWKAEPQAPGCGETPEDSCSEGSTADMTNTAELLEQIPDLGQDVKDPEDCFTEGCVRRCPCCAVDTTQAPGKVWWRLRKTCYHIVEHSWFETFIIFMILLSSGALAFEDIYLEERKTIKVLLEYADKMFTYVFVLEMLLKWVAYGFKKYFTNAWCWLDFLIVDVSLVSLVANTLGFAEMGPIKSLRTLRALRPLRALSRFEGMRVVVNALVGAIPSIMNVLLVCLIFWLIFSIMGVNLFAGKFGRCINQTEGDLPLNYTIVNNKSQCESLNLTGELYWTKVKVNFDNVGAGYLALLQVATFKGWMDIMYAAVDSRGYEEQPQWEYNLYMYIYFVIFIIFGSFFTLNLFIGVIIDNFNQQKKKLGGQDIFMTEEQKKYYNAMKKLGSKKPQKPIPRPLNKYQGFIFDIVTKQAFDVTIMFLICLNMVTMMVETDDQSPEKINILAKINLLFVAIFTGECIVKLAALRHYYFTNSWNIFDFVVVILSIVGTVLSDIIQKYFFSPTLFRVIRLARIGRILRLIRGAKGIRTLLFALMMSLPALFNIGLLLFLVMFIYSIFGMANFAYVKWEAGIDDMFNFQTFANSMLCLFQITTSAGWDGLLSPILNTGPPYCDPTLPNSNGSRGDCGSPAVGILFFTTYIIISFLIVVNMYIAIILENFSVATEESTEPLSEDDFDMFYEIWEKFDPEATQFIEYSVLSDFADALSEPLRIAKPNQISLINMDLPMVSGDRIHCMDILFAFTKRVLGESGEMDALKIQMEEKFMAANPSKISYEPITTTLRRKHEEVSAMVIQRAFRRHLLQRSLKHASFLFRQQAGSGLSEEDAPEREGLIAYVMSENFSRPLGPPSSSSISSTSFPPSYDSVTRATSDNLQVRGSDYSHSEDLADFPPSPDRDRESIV

For `CCN(CCF)CC(=O)Nc1c(C)cccc1C` [Example 1, N-(2,6-dimethylphenyl)-2-(ethyl(2-fluoroethyl)amino)acetamide], the “Kd-values, non-failing (NF1) vs failing (F1) left ventricular tissue” value (SCN5A [1]) was “no difference in Kd-values between the groups” and the “level of non-specific / non-displaceable binding (BNS) as competition ligand” value (SCN5A [2]; competition ligands at the same concentration against the 18F tracer) was “same level of BNS as lidocaine; also recorded: same level of non-displaceable binding”.
For `CCN(CC[18F])CC(=O)Nc1c(C)cccc1C` [Example 2, N-(2,6-dimethylphenyl)-2-(ethyl(2-(fluoro-^18F)ethyl)amino)acetamide], the estimated residence time ([3]; bolus 4 mCi + infusion 4 mCi over 90 min, lidocaine challenge) was 5 min⁻¹, the “time after which blood background cleared” value ([3]; single bolus, healthy baboon) was 2 to 3 min and the “residence time (t1/2^−1) of the radiotracer” value (rat myocardium; from time course of signal reduction after lidocaine, estimation) was ~1 min⁻¹. The “time to stable baseline signal” value (rat myocardium; i.v. bolus ~150 μCi followed by constant infusion ~300 μCi over 60 min) was 20 min, the “time for tracer bolus to reach peak signal” value (rat myocardium; single bolus) was 3 min and the “time after bolus injection at which blood pool had cleared and myocardial signal was revealed” value (rat myocardium; single i.v. bolus) was 3 min. The myocardial baseline signal (rat myocardium; single i.v. bolus, healthy rats) was “up to 2 % ID/cc”, the “reduction of total binding on wash-out” value (SCN5A [2]; after 1 min wash, incubation 15 min) was 50% and the “incubation time after which specific binding (BS) reached a constant level” value (SCN5A [2]; incubation times 1, 5, 10, 20 min, wash 1 min) was 5 min. For the same compound, the “specific binding (BS) as share of overall binding” value (SCN5A [2]; rat myocardial slices 20 μm, self-competition with excess (500 μM) unlabeled compound) was ~70%.
`CCN(CC)CC(=O)Nc1c(C)cccc1C` [lidocaine, reference compound] was tested, and the “effect of lidocaine pre-block on myocardial tracer signal” value ([3]; 5 mg/kg i.v. lidocaine 5 min prior to tracer) was “blocked the myocardial signal; also recorded: suppressed the myocardial signal to background levels”, the “time to plateau of full block after the pharmacological dose” value (rat myocardium; 5 mg/kg lidocaine) was 3 minutes and the “reduction of tracer signal by in-scan lidocaine challenge” value (rat myocardium; 5 mg/kg lidocaine i.v., bolus+infusion paradigm) was “complete reduction of the radiolabeled compound signal to background level”. The “lidocaine dose from which reduction of myocardial tracer signal was observed” value (rat myocardium; i.v. 5 min before tracer, compared to vehicle) was 0.1 mg/kg and the “in vivo IC50 at the myocardium” value (rat myocardium; in-scan lidocaine challenges 0.5-5 mg/kg i.v., bolus+infusion, estimation) was ~0.7 mg/kg.
